Data reported in patent US9446084B2, “Use of free radical scavengers for protecting and treating skin and hair damages caused by chemotherapy” (Coty Prestige Lancaster Group GmbH, priority 2005, dated 2016).

Columns and labels:
[1] = RPF 'is known'; cited from earlier work
[2] = Radical protection factor (RPF) by electron spin resonance (ESR) against a test radical; format: biochemical
Source text: S2=signal amplitude of the antioxidant.
As has already been described, the radical protection factor (RPF) determines the activity of a substance for binding free radicals against a test substance. This test substance consists of a highly reactive, semi-stable radical which reacts with all known antioxidation agents. Such radicals include nitroxides such as proxo (2.2,5.5-tetramethyl-1-dihydropyrrolinoxy-nitroxide), tempol (2.2,6.6-tetramethyl-1-piperidinoxy-4-ol-nitroxide), DTBN (di-tert-butyl-nitroxide or preferably DPPH (1.1-diphenyl-2-picryl-hydrazyl.
The RPF is measured in such a way that the signal amplitudes of the test radical created by electron spin resonance (ESR/EPR) are measured before and after mixing with an antioxidation agent/scavenger, and the RPF is calculated from this.
Ind. […] Here, based on the known concentration of the test substance (here: DPPH) or the number of its free radicals (radicals per ml), a signal amplitude S1 is measured using an ESR spectrometer. The test radical is dissolved in the same way as the antioxidation agent in a (e.g. 0.1 m) water/alcohol solution. Then the signal amplitude S2 of the antioxidation agent is measured. The normalised difference between the two signal amplitudes is the reduction factor RF RF=(S1-S2)/S1. The result of the radical reduction of the test substance RC×RF is normalised in relation to the quantity of the product input PI (mg/ml). Here, the RC is the quantity of the test substance, i.e. the known number of radicals in the test substance. The radical protection factor is calculated according to the following equation: […]
The radical protection factor can be determined using an ESR spectrometer (GALENUS GmbH, Berlin, Germany), and is a value for labelling products with regard to their ability to bind free radicals. The procedure is an in-vitro procedure, in which no individual properties of the user influence the antioxidants.

| Compound | RPF known for standard antioxidation agents [1] | RPF (radical protection factor) ([2]; radical scavenger as such, ESR) | other results |
| --- | --- | --- | --- |
| Cc1c(C)c2c(c(C)c1O)CCC(C)(CCCC(C)CCCC(C)CCCC(C)C)O2 (racemic) [DL-α-tocopherol] | 41200 ×10^14 radicals/mg | – | – |
| CC1=C(/C=C/C(C)=C/C=C/C(C)=C/CO)C(C)(C)CCC1 [all-trans-retinol] | 827 ×10^14 radicals/mg | – | – |
| CC(=O)OC/C=C(C)/C=C/C=C(C)/C=C/C1=C(C)CCCC1(C)C [all-trans-retinolacetate] | 196 ×10^14 radicals/mg | – | – |
| O=C1O[C@H]([C@@H](O)CO)C([O-])=C1OP(=O)([O-])[O-].[Na+].[Na+].[Na+] [natrium-ascorbyl-phosphate] | – | 35000 ×10^14 radicals/mg | – |
| O=C(/C=C/c1ccc(O)c(O)c1)O[C@H](Cc1ccc(O)c(O)c1)C(=O)O [rosemary acid] | – | 36000-68000 ×10^14 radicals/mg | – |
| O=C(OC[C@H]1O[C@@H](OC(=O)c2cc(O)c(O)c(OC(=O)c3cc(O)c(O)c(O)c3)c2)[C@H](OC(=O)c2cc(O)c(O)c(OC(=O)c3cc(O)c(O)c(O)c3)c2)[C@@H](OC(=O)c2cc(O)c(O)c(OC(=O)c3cc(O)c(O)c(O)c3)c2)[C@@H]1OC(=O)c1cc(O)c(O)c(OC(=O)c2cc(O)c(O)c(O)c2)c1)c1cc(O)c(O)c(OC(=O)c2cc(O)c(O)c(O)c2)c1 [tannic acid] | – | 310000 ×10^14 radicals/mg | – |
| CC(=O)Oc1c(C)c(C)c2c(c1C)CCC(C)(CCC[C@H](C)CCC[C@H](C)CCCC(C)C)O2 (stereo partly drawn) [α-tocopherylacetate] | 48 ×10^14 radicals/mg | – | – |
| cyclodextrines | – | – | RPF (radical protection factor) ([2]; unit not given): 0 |
